Data reported in patent US11592445B2, “OLFR90 specificity and methods of detection” (THE JOHNS HOPKINS UNIVERSITY, priority 2016, dated 2023).

Target: T1, Olfr90 (Mus musculus, UniProt Q0VEL5)
T1 construct: Flag; expressed in transfected cells; host or cells: HEK293T
T1 sequence (Q0VEL5 1-310): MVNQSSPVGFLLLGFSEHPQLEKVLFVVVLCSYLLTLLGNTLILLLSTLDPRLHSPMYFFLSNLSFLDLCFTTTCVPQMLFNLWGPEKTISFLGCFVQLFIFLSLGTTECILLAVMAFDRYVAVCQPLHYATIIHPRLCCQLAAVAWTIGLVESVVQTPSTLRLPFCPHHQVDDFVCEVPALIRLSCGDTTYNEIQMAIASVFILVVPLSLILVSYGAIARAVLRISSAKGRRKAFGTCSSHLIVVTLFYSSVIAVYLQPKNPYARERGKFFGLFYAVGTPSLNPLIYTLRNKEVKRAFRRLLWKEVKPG
Test: Luciferase reporter assay for ligand screening, HEK293T cells transfected with Lucy-Olfr90
Type: cell-based
Conditions: FIG. 2: p<0.0005 for all conditions vs 0 mM
Excerpt: HEK293T cells were transfected with Lucy-Olfr90 and two luciferase constructs, one of which was constitutively active (Renilla) while the other was only activated by an increase in intracellular cyclic AMP due to ligand binding (Firefly).
A luciferase reporter assay was employed for ligand screening (FIG. 1). In this assay, Olfr90 may be transfected into HEK293T cells along with a firefly luciferase construct whose activity is dependent upon elevated [cAMP]i. Upon binding its ligand, the expressed Olfr90 increases [cAMP]i, leading to increased transcription of firefly luciferase (FIG. 1). A constitutively active luciferase (Renilla) is co-transfected; therefore, the ratio of Firefly/Renilla is a measure of OR activation.
In this assay, it is essential that the Olfr90 is on the cell surface. […] A novel N-terminal tag which allows for surface trafficking of the majority of the renal Olfr90 was used. This tag is a leucine rich 17 amino acid sequence (“Lucy” tag) that not only aids in trafficking to the surface, but is cleaved before the Olfr90 reaches the cell surface.
In HEK cells or hana3 cells, Olfr90 will be expressed along with along with a firefly luciferase construct whose activity is dependent upon elevated [cAMP]i. Olfr90 may be transfected with or without various chaperones (Ric8b, RTP1S, REEP, etc.) and with or without various tags (Rho, Flag, Lucy, etc.). Upon binding its ligand, the expressed OR increases [cAMP]i, leading to increased transcription of firefly luciferase. A constitutively active luciferase (Renilla) is co-transfected; therefore, the ratio of Firefly/Renilla is a measure of OR activation.

| SMILES | Olfr90 response (luciferase output, Firefly/Renilla ratio) to isolated chemicals |
| --- | --- |
| C=CC(C)(O)CCC=C(C)C (stereo not drawn) [Linalool] | responded in a dose dependent manner |
| CCCC1CCSC(C)O1 (stereo not drawn) [MPOT, 2-Methyl-4-Propyl-3,1-Oxathiane] | responded in a dose dependent manner |
| C=CC(O)CCCCC (stereo not drawn) [Odorant 1-Octen-3-ol, 1-Octen-3-ol] | responded in a dose dependent manner |
